Test systems include MDA-N; EKVX; ACHN; UACC-62; MCF7; SW-620; MOLT-4; U-251; SF-268; SF-539; Hs-578T; NCI-H23; T47D; RPMI-8226; UACC-257; HCT-15; UO-31; PC-3; SK-MEL-2; Malme-3M.
Holding throughout (test): inhibition of tumour cell growth, NCI panel, 48 h

SMILES strings stand for the structures.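 Test compounds were applied to cells in 96-well plates for 48 hours at 5 doses. Here, GI50 denotes the concentration required for 50% inhibition of growth.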 Calls of active or inactive are those of the source. No stated cut-off is given here; in the data, active = GI50 up to about 1.1 µM and inactive = higher.

Take `O=C(/C=C(\O)c1cc(-c2ccccc2)n(-c2ccccc2)n1)c1ccccc1`: the GI50 is 18.2 µM (inactive) in the test on MDA-N; 9.59 µM (inactive) with EKVX; 3.35 µM (inactive) in the test on ACHN; 2.99 µM (inactive) in the test with UACC-62; 9.73 µM (inactive) with MCF7; 4.62 µM (inactive) in the test on SW-620. Besides, the GI50 in the test with MOLT-4 is 0.415 µM (active); in the test on U-251 it was 2.84 µM (inactive); in the test on SF-268, 24.2 µM (inactive); with SF-539, 10.9 µM (inactive); in the test with Hs-578T it was 14.7 µM (inactive); in the test with NCI-H23 it was 9.71 µM (inactive). Further, the GI50 in the test on T47D is 3.7 µM (inactive); in the test with RPMI-8226, 1.8 µM (inactive); in the test on UACC-257, 59.4 µM (inactive); in the test on HCT-15 it was 1.48 µM; in the test with UO-31, 4.27 µM (inactive); in the test on PC-3, 9.29 µM (inactive). The results for the GI50 in the test with SK-MEL-2 and in the test on Malme-3M were 13.4 µM (inactive) and 5.09 µM (inactive), respectively.
Take `C=C1C(=O)OC2CC(C)C(C(O)CC(C)O)=CCC12` (stereo not given): the GI50 is 12.4 µM (inactive) in the test with MDA-N; 12.5 µM (inactive) in the test on EKVX; 4.39 µM (inactive) in the test on ACHN; 16.6 µM (inactive) in the test on UACC-62; 13.9 µM (inactive) in the test on MCF7; 10.4 µM (inactive) in the test with SW-620. For the same compound, the GI50 in the test with MOLT-4 was 14 µM (inactive); with U-251, 16.3 µM (inactive); in the test with SF-268, 14.3 µM (inactive); with SF-539, 15 µM (inactive); with Hs-578T it was 20.9 µM (inactive); in the test with NCI-H23, 15.6 µM (inactive). Moreover, the GI50 was 7.08 µM (inactive) with T47D; 6.67 µM (inactive) in the test with RPMI-8226; 12.9 µM (inactive) in the test on UACC-257; 14.2 µM in the test with HCT-15; 16.2 µM (inactive) in the test with UO-31; 21.6 µM (inactive) in the test on PC-3. In addition, the figures for the GI50 in the test with SK-MEL-2 and in the test on Malme-3M were 16.3 µM (inactive) and 7.74 µM (inactive), respectively.
On to `CC1CC/C(=C\c2ccc(F)cc2)C2=C1C(c1ccc(F)cc1)N1C(=O)CSC1=N2` (stereo not given), for which the GI50 is > 100 µM (inactive) in the test on MDA-N; 17.7 µM (inactive) in the test with EKVX; > 100 µM (inactive) in the test on ACHN; > 100 µM (inactive) in the test with UACC-62; 55.1 µM (inactive) with MCF7; > 100 µM (inactive) in the test with SW-620. Further, the GI50 in the test on MOLT-4 is 6.55 µM (inactive); in the test with U-251, 93.3 µM (inactive); in the test on SF-268, > 100 µM (inactive); in the test with SF-539, > 100 µM (inactive); in the test with Hs-578T, > 100 µM (inactive); in the test on NCI-H23, 58.5 µM (inactive). The GI50 is 45.1 µM (inactive) in the test on T47D; 15.5 µM (inactive) in the test on RPMI-8226; 62.1 µM (inactive) in the test with UACC-257; 43.3 µM in the test on HCT-15; 87.9 µM (inactive) in the test with UO-31; 25.6 µM (inactive) in the test with PC-3. Besides, the GI50 in the test with SK-MEL-2 and in the test on Malme-3M was > 100 µM (inactive) in each case.
As to `COc1ccc2[nH]c(C(=O)N3CC(CCl)c4ccc(N)cc43)cc2c1` (stereo not given), the GI50 is 0.144 µM (active) in the test on MDA-N; 0.368 µM (active) with EKVX; 0.0728 µM (active) in the test with ACHN; 0.141 µM (active) with UACC-62; 0.0689 µM (active) with MCF7; 0.173 µM (active) with SW-620. The GI50 with MOLT-4 is 0.165 µM (active); in the test with U-251, 0.313 µM (active); in the test on SF-268, 0.0491 µM (active); with SF-539 it was 0.211 µM (active); in the test with Hs-578T it was 0.335 µM (active); in the test on NCI-H23 it was 0.0726 µM (active). Besides, the GI50 in the test with T47D was 0.455 µM (active); in the test with RPMI-8226, 0.361 µM (active); in the test on UACC-257, 0.241 µM (active); in the test on HCT-15 it was 0.287 µM; in the test with UO-31, 0.145 µM (active); with PC-3, 0.233 µM (active). Besides, the GI50 was 0.199 µM (active) in the test with SK-MEL-2 and 0.141 µM (active) with Malme-3M.

Source of the values: ChEMBL document CHEMBL1201862, “PubChem BioAssay data set” (2004).
